Assay results taken from ChEMBL document CHEMBL4834489 (ACS Med Chem Lett, 2021).

Assays:
[1] = Clearance in human liver microsomes at 1 uM followed by NADPH addition measured up to 60 mins by LC-MS/MS analysis relative to hepatic blood flow; assay type: ADME, Microsome; details: read-out: CLH
[2] = Clearance in human hepatocytes at 1 uM measured up to 6 hrs by LC-MS/MS analysis relative to hepatic blood flow; assay type: ADME, cell-based, Hepatocyte; details: read-out: CLH

hepatic extraction ratio at 1 h, 1 µM [1] | hepatic extraction ratio at 6 h, 1 µM [2] | Structure (SMILES)
< 0.23 | 0.18 | Cc1c(C(=O)NCC(C)(C)O)sc2ncn(Cc3nc(C[C@H](O)c4ccc(Cl)cc4)no3)c(=O)c12
< 0.23 | 0.31 | O=C1NCCc2c1sc1ncn(Cc3nc(C[C@H](O)c4ccc(Cl)cc4)no3)c(=O)c21
< 0.23 | 0.36 | Cc1c(C(N)=O)sc2ncn(Cc3nc(C[C@H](O)c4cc5ccccc5o4)no3)c(=O)c12
< 0.23 | 0.39 | NC(=O)c1sc2ncn(Cc3nc(C[C@H](O)c4ccc(Cl)cc4)no3)c(=O)c2c1Cl
< 0.23 | 0.23 | Cc1c(C(N)=O)sc2ncn(Cc3nc(C[C@H](O)c4cc(F)cc(F)c4)no3)c(=O)c12
0.29 | 0.24 | CNC(=O)c1sc2ncn(Cc3nc(C[C@H](O)c4ccc5c(c4)OCO5)no3)c(=O)c2c1C
0.24 | 0.36 | Cc1c(C(=O)NCC(F)F)sc2ncn(Cc3nc(C[C@H](O)c4ccc(Cl)cc4)no3)c(=O)c12
< 0.23 | 0.29 | CNC(=O)c1sc2ncn(Cc3nc(C[C@H](O)c4ccc(Cl)cc4)no3)c(=O)c2c1C
< 0.23 | 0.24 | Cc1c(C(N)=O)sc2ncn(Cc3nc(C[C@H](O)c4ccc5c(c4)OCO5)no3)c(=O)c12
0.29 | 0.25 | Cc1c(C(N)=O)sc2ncn(Cc3nc(C[C@H](O)c4ccc(Cl)cc4)no3)c(=O)c12
